{
  "source": "BigSolDB 2.1",
  "data": [
    {"smiles": "Nc1ccc(S(=O)(=O)Nc2ccc(Cl)nn2)cc1", "values": [
      {"measurement": "solubility (mole fraction)", "setting": "in 1,4-dioxane, 283.15 K", "value": 0.0994},
      {"measurement": "solubility (mole fraction)", "setting": "in 1,4-dioxane, 288.15 K", "value": 0.106},
      {"measurement": "solubility (mole fraction)", "setting": "in 1,4-dioxane, 293.15 K", "value": 0.116},
      {"measurement": "solubility (mole fraction)", "setting": "in 1,4-dioxane, 298.15 K", "value": 0.129},
      {"measurement": "solubility (mole fraction)", "setting": "in 1,4-dioxane, 303.15 K", "value": 0.143},
      {"measurement": "solubility (mole fraction)", "setting": "in 1,4-dioxane, 308.15 K", "value": 0.159},
      {"measurement": "solubility (mole fraction)", "setting": "in 1,4-dioxane, 313.15 K", "value": 0.179},
      {"measurement": "solubility (mole fraction)", "setting": "in 1,4-dioxane, 318.15 K", "value": 0.204},
      {"measurement": "solubility (mole fraction)", "setting": "in 1,4-dioxane, 323.15 K", "value": 0.235},
      {"measurement": "solubility (mole fraction)", "setting": "in acetone, 283.15 K", "value": 0.0647},
      {"measurement": "solubility (mole fraction)", "setting": "in acetone, 288.15 K", "value": 0.0715},
      {"measurement": "solubility (mole fraction)", "setting": "in acetone, 293.15 K", "value": 0.0804},
      {"measurement": "solubility (mole fraction)", "setting": "in acetone, 298.15 K", "value": 0.0908},
      {"measurement": "solubility (mole fraction)", "setting": "in acetone, 303.15 K", "value": 0.102},
      {"measurement": "solubility (mole fraction)", "setting": "in acetone, 308.15 K", "value": 0.116},
      {"measurement": "solubility (mole fraction)", "setting": "in acetone, 313.15 K", "value": 0.131},
      {"measurement": "solubility (mole fraction)", "setting": "in acetone, 318.15 K", "value": 0.147},
      {"measurement": "solubility (mole fraction)", "setting": "in acetone, 323.15 K", "value": 0.165},
      {"measurement": "solubility (mole fraction)", "setting": "in acetonitrile, 283.15 K", "value": 0.0187},
      {"measurement": "solubility (mole fraction)", "setting": "in acetonitrile, 288.15 K", "value": 0.0193},
      {"measurement": "solubility (mole fraction)", "setting": "in acetonitrile, 293.15 K", "value": 0.0202},
      {"measurement": "solubility (mole fraction)", "setting": "in acetonitrile, 298.15 K", "value": 0.0213},
      {"measurement": "solubility (mole fraction)", "setting": "in acetonitrile, 303.15 K", "value": 0.0224},
      {"measurement": "solubility (mole fraction)", "setting": "in acetonitrile, 308.15 K", "value": 0.0239},
      {"measurement": "solubility (mole fraction)", "setting": "in acetonitrile, 313.15 K", "value": 0.0258},
      {"measurement": "solubility (mole fraction)", "setting": "in acetonitrile, 318.15 K", "value": 0.0283},
      {"measurement": "solubility (mole fraction)", "setting": "in acetonitrile, 323.15 K", "value": 0.0312},
      {"measurement": "solubility (mole fraction)", "setting": "in ethanol, 283.15 K", "value": 0.00381},
      {"measurement": "solubility (mole fraction)", "setting": "in ethanol, 288.15 K", "value": 0.00432},
      {"measurement": "solubility (mole fraction)", "setting": "in ethanol, 293.15 K", "value": 0.00484},
      {"measurement": "solubility (mole fraction)", "setting": "in ethanol, 298.15 K", "value": 0.00543},
      {"measurement": "solubility (mole fraction)", "setting": "in ethanol, 303.15 K", "value": 0.00616},
      {"measurement": "solubility (mole fraction)", "setting": "in ethanol, 308.15 K", "value": 0.00689},
      {"measurement": "solubility (mole fraction)", "setting": "in ethanol, 313.15 K", "value": 0.00777},
      {"measurement": "solubility (mole fraction)", "setting": "in ethanol, 318.15 K", "value": 0.00879},
      {"measurement": "solubility (mole fraction)", "setting": "in ethanol, 323.15 K", "value": 0.0101},
      {"measurement": "solubility (mole fraction)", "setting": "in ethyl acetate, 283.15 K", "value": 0.0135},
      {"measurement": "solubility (mole fraction)", "setting": "in ethyl acetate, 288.15 K", "value": 0.0141},
      {"measurement": "solubility (mole fraction)", "setting": "in ethyl acetate, 293.15 K", "value": 0.0152},
      {"measurement": "solubility (mole fraction)", "setting": "in ethyl acetate, 298.15 K", "value": 0.0165},
      {"measurement": "solubility (mole fraction)", "setting": "in ethyl acetate, 303.15 K", "value": 0.0179},
      {"measurement": "solubility (mole fraction)", "setting": "in ethyl acetate, 308.15 K", "value": 0.0198},
      {"measurement": "solubility (mole fraction)", "setting": "in ethyl acetate, 313.15 K", "value": 0.0219},
      {"measurement": "solubility (mole fraction)", "setting": "in ethyl acetate, 318.15 K", "value": 0.0244},
      {"measurement": "solubility (mole fraction)", "setting": "in ethyl acetate, 323.15 K", "value": 0.0268},
      {"measurement": "solubility (mole fraction)", "setting": "in isopropanol, 283.15 K", "value": 0.0031},
      {"measurement": "solubility (mole fraction)", "setting": "in isopropanol, 288.15 K", "value": 0.00345},
      {"measurement": "solubility (mole fraction)", "setting": "in isopropanol, 293.15 K", "value": 0.00382},
      {"measurement": "solubility (mole fraction)", "setting": "in isopropanol, 298.15 K", "value": 0.00429},
      {"measurement": "solubility (mole fraction)", "setting": "in isopropanol, 303.15 K", "value": 0.00476},
      {"measurement": "solubility (mole fraction)", "setting": "in isopropanol, 308.15 K", "value": 0.00538},
      {"measurement": "solubility (mole fraction)", "setting": "in isopropanol, 313.15 K", "value": 0.00614},
      {"measurement": "solubility (mole fraction)", "setting": "in isopropanol, 318.15 K", "value": 0.00702},
      {"measurement": "solubility (mole fraction)", "setting": "in isopropanol, 323.15 K", "value": 0.00792},
      {"measurement": "solubility (mole fraction)", "setting": "in methanol, 283.15 K", "value": 0.00473},
      {"measurement": "solubility (mole fraction)", "setting": "in methanol, 288.15 K", "value": 0.00513},
      {"measurement": "solubility (mole fraction)", "setting": "in methanol, 293.15 K", "value": 0.00569},
      {"measurement": "solubility (mole fraction)", "setting": "in methanol, 298.15 K", "value": 0.00627},
      {"measurement": "solubility (mole fraction)", "setting": "in methanol, 303.15 K", "value": 0.00696},
      {"measurement": "solubility (mole fraction)", "setting": "in methanol, 308.15 K", "value": 0.00779},
      {"measurement": "solubility (mole fraction)", "setting": "in methanol, 313.15 K", "value": 0.00867},
      {"measurement": "solubility (mole fraction)", "setting": "in methanol, 318.15 K", "value": 0.00966},
      {"measurement": "solubility (mole fraction)", "setting": "in methanol, 323.15 K", "value": 0.0109},
      {"measurement": "solubility (mole fraction)", "setting": "in n-butanol, 283.15 K", "value": 0.00335},
      {"measurement": "solubility (mole fraction)", "setting": "in n-butanol, 288.15 K", "value": 0.00372},
      {"measurement": "solubility (mole fraction)", "setting": "in n-butanol, 293.15 K", "value": 0.00421},
      {"measurement": "solubility (mole fraction)", "setting": "in n-butanol, 298.15 K", "value": 0.00474},
      {"measurement": "solubility (mole fraction)", "setting": "in n-butanol, 303.15 K", "value": 0.00531},
      {"measurement": "solubility (mole fraction)", "setting": "in n-butanol, 308.15 K", "value": 0.00596},
      {"measurement": "solubility (mole fraction)", "setting": "in n-butanol, 313.15 K", "value": 0.00676},
      {"measurement": "solubility (mole fraction)", "setting": "in n-butanol, 318.15 K", "value": 0.00768},
      {"measurement": "solubility (mole fraction)", "setting": "in n-butanol, 323.15 K", "value": 0.00867},
      {"measurement": "solubility (mole fraction)", "setting": "in water, 283.15 K", "value": "2.25e-05"},
      {"measurement": "solubility (mole fraction)", "setting": "in water, 288.15 K", "value": "3.31e-05"},
      {"measurement": "solubility (mole fraction)", "setting": "in water, 293.15 K", "value": "4.39e-05"},
      {"measurement": "solubility (mole fraction)", "setting": "in water, 298.15 K", "value": "5.9e-05"},
      {"measurement": "solubility (mole fraction)", "setting": "in water, 303.15 K", "value": "7.53e-05"},
      {"measurement": "solubility (mole fraction)", "setting": "in water, 308.15 K", "value": "9.52e-05"},
      {"measurement": "solubility (mole fraction)", "setting": "in water, 313.15 K", "value": 0.000119},
      {"measurement": "solubility (mole fraction)", "setting": "in water, 318.15 K", "value": 0.000149},
      {"measurement": "solubility (mole fraction)", "setting": "in water, 323.15 K", "value": 0.000184}
    ]}
  ]
}
